Experimental data taken from patent US20240041042A1, “1-(PYRIDYL)-5-AZINYLPYRAZOLE DERIVATIVES, AND THEIR USE FOR CONTROL OF UNDESIRED PLANT GROWTH” (Bayer Aktiengesellschaft, priority 2020, published 2024).
Like-named read-outs stand apart in the source and are kept apart here.

Key:
Assay type in all cases: in vivo
[1] = tested on: Echinochloa crus-galli (ECHCG); assay: Pre-emergence herbicidal action against ECHCG
Method in brief: (§1)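 Read-out is visual percent damage relative to untreated pots, with 100% meaning dead plants and 0% meaning no difference, assessed roughly three weeks after treatment. Compounds were applied pre-emergence to the covering soil at up to 320 g/ha.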

Setaria viridis (SETVI) [2] = assay: Pre-emergence herbicidal action against SETVI
Method in brief: as §1

[3] = tested on: Pharbitis purpurea (PHBPU); assay: Pre-emergence herbicidal action against PHBPU; details: dosage 320 g/ha
Method in brief: as §1

[4] = tested on: Amaranthus retroflexus (AMARE); assay: Post-emergence herbicidal action against AMARE
Method in brief: (§2)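 Values are percent visual activity (0% like control, 100% plants dead) after about 3 weeks in the greenhouse. Treatment: post-emergence spray at one-leaf stage, 600 l/ha spray volume, 0.5% additive, doses 320 g/ha or lower.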

[5] = tested on: Matricaria inodora (MATIN); assay: Pre-emergence herbicidal action against MATIN
Method in brief: as §1

Avena fatua (AVEFA) [6] = assay: Pre-emergence herbicidal action against AVEFA; details: 320 g/ha, visual scoring after about 3 weeks vs untreated controls
Method in brief: as §1

Lolium rigidum (LOLRI) [7] = assay: Pre-emergence herbicidal action against LOLRI; details: dosage 320 g/ha
Method in brief: as §1

Viola tricolor (VIOTR) [8] = assay: Post-emergence herbicidal action against VIOTR
Method in brief: as §2

Lolium rigidum (LOLRI) [9] = assay: Post-emergence herbicidal action against LOLRI; details: dosage 320 g/ha
Method in brief: as §2

[10] = tested on: Echinochloa crus-galli (ECHCG); assay: Post-emergence herbicidal action against ECHCG
Method in brief: as §2

[11] = tested on: Polygonum convolvulus (POLCO); assay: Post-emergence herbicidal action against POLCO; details: dosage 320 g/ha
Method in brief: as §2

[12] = tested on: Verconica persica (VERPE); assay: Pre-emergence herbicidal action against VERPE
Method in brief: as §1

[13] = tested on: Verconica persica (VERPE); assay: Post-emergence herbicidal action against VERPE; details: 320 g/ha, VERPE
Method in brief: as §2

Zea mays (ZEAMX) [14] = details: crop plant compatibility, effect vs untreated controls
Method in brief: (§3)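 Effects were read visually as % versus untreated controls (0% = no effect, 100% = death) about 3 weeks post-treatment. Application was a post-emergence spray at the one-leaf stage of WP/EC formulations with 0.5% additive at 600 l/ha. Different dosages are denoted a, b and c.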

Oryza sativa (ORYSA) = details: crop plant compatibility, 80 g/ha, effect in comparison to untreated controls
Method in brief: as §3

[15] = tested on: Pharbitis purpurea (PHBPU); assay: Post-emergence herbicidal action against PHBPU; details: dosage 320 g/ha
Method in brief: as §2

[16] = tested on: Matricaria inodora (MATIN); assay: Post-emergence herbicidal action against MATIN; details: dosage 320 g/ha
Method in brief: as §2

[17] = tested on: Alopecurus myosuroides (ALOMY); assay: Post-emergence herbicidal action against ALOMY; details: 320 g/ha, visual rating about 3 weeks after treatment vs untreated controls (100% = plants have died, 0% = like control plants)
Method in brief: as §2

Viola tricolor (VIOTR) [18] = assay: Pre-emergence herbicidal action against VIOTR
Method in brief: as §1

[19] = tested on: Polygonum convolvulus (POLCO); assay: Pre-emergence herbicidal action against POLCO; details: dosage 320 g/ha
Method in brief: as §1

Zea mays (ZEAMX) [20] = details: pre-emergence, 80 g/ha, crop plant compatibility, in comparison to untreated controls
Description: Seeds of monocotyledonous and dicotyledonous weed plants and crop plants are placed in plastic or organic planting pots and covered with soil. The compounds of the invention, formulated in the form of wettable powders (WP) or as emulsion concentrates (EC), are then applied to the surface of the covering soil as aqueous suspension or emulsion with addition of 0.5% additive at a water application rate equivalent to 600 l/ha. After the treatment, the pots are placed in a greenhouse and kept under good growth conditions for the trial plants. After about 3 weeks, the effect of the preparations is scored visually in comparison with untreated controls as percentages. For example, 100% activity=the plants have died, 0% activity=like control plants.
The observed effects on selected crop plants are reported here in comparison to the untreated controls (values in %). The appendices “a” “b” and “c” give differentiation by dosage used with otherwise the same crop plants tested.

Avena fatua (AVEFA) [21] = assay: Post-emergence herbicidal action against AVEFA; details: 320 g/ha, visual rating about 3 weeks after treatment
Method in brief: as §2

[22] = tested on: Alopecurus myosuroides (ALOMY); assay: Pre-emergence herbicidal action against ALOMY; details: scored visually after about 3 weeks, 100% = plants have died
Method in brief: as §1

[23] = tested on: Abutilon theophrasti (ABUTH); assay: Post-emergence herbicidal action against ABUTH; details: visual rating about 3 weeks after treatment vs untreated controls (100% = plants have died, 0% = like control plants)
Method in brief: as §2

[24] = tested on: Amaranthus retroflexus (AMARE); assay: Pre-emergence herbicidal action against AMARE; details: visual scoring after about 3 weeks vs untreated controls
Method in brief: as §1

[25] = tested on: Triticum aestivum (TRZAS); details: crop plant compatibility, 80 g/ha, effect vs untreated controls
Method in brief: as §3

Setaria viridis (SETVI) [26] = assay: Post-emergence herbicidal action against SETVI; details: dosage 320 g/ha
Method in brief: as §2

[27] = 320 g/ha, visual rating about 3 weeks after treatment

| SMILES | Pre-emergence action against ECHCG in % ([1]; dosage 320 g/ha) [%] | Pre-emergence action against SETVI in % (Setaria viridis (SETVI) [2]; dosage 320 g/ha) [%] | Pre-emergence action against PHBPU in % [3] [%] | Post-emergence action against AMARE in % [4, 27] [%] | Pre-emergence action against MATIN in % ([5]; dosage 320 g/ha) [%] | Post-emergence action against VIOTR in % (Viola tricolor (VIOTR) [8]; 80 g/ha) [%] | Post-emergence action against VIOTR in % (Viola tricolor (VIOTR) [8]; 320 g/ha) [%] | Post-emergence action against ECHCG in % ([10]; dosage 80 g/ha) [%] | Post-emergence action against ECHCG in % ([10]; dosage 320 g/ha) [%] | Post-emergence action against POLCO in % [11] [%] | Pre-emergence action against VERPE in % ([12]; dosage 320 g/ha) [%] | Post-emergence action against VERPE in % [13] [%] | Post-emergence action against ORYSA in % (Oryza sativa (ORYSA)) [%] | Post-emergence action against PHBPU in % [15] [%] | Pre-emergence action against VIOTR in % (Viola tricolor (VIOTR) [18]; 320 g/ha, Viola tricolor) [%] | Pre-emergence action against POLCO in % [19] [%] | Pre-emergence action against ZEAMX in % (Zea mays (ZEAMX) [20]) [%] | Pre-emergence action against ALOMY ([22]; 320 g/ha) [%] | Post-emergence action against ABUTH in % ([23]; 320 g/ha) [%] | Pre-emergence action against AMARE in % ([24]; 320 g/ha) [%] | further results |
| --- | --- | --- | --- | --- | --- | --- | --- | --- | --- | --- | --- | --- | --- | --- | --- | --- | --- | --- | --- | --- | --- |
| O=C(O)COc1nn(-c2nc(F)ccc2F)c(-c2ccc(F)nc2)c1Br [Example I-334] | 90 | 90 | 90 | 80 | 100 | 80 | 80 | 80 | 90 | 80 | 80 | 80 | 20 | 80 | 90 | 90 | 20 | 90 | 80 | 100 | Pre-emergence action against ECHCG in % ([1]; dosage 80 g/ha): 80%; Pre-emergence action against SETVI in % (Setaria viridis (SETVI) [2]; dosage 80 g/ha): 90%; Post-emergence action against AMARE in % ([4]; 80 g/ha, visual rating about 3 weeks after treatment vs untreated controls (100% = plants have died, 0% = like control plants)): 80%; Pre-emergence action against MATIN in % ([5]; dosage 80 g/ha): 80%; Pre-emergence action against AVEFA in % (Avena fatua (AVEFA) [6]): 90%; Pre-emergence action against LOLRI in % (Lolium rigidum (LOLRI) [7]): 90%; Post-emergence action against LOLRI in % (Lolium rigidum (LOLRI) [9]): 90%; Post-emergence action against ZEAMX in % (Zea mays (ZEAMX) [14]; 80 g/ha): 10%; Post-emergence action against ZEAMX in % (Zea mays (ZEAMX) [14]; 320 g/ha): 20%; Post-emergence action against MATIN in % [16]: 80%; Post-emergence action against ALOMY in % [17]: 90%; Post-emergence action against AVEFA in % (Avena fatua (AVEFA) [21]): 80%; Pre-emergence action against ALOMY ([22]; 80 g/ha): 80%; Post-emergence action against ABUTH in % ([23]; 80 g/ha): 80%; Pre-emergence action against AMARE in % ([24]; 80 g/ha): 90% |
| CCOC(=O)COc1nn(-c2ncccc2C(F)(F)F)c(-c2cncc(F)c2)c1Br [Example I-202] | 90 | 90 | 90 | 80 | 80 | 80 | 80 | 80 | 90 | 80 | 90 | 80 | 20 | 90 | 100 | 90 | 20 | 80 | 80 | 90 | Pre-emergence action against VERPE in % ([12]; dosage 80 g/ha): 80%; Post-emergence action against TRZAS in % [25]: 20%; Post-emergence action against SETVI in % (Setaria viridis (SETVI) [26]): 80%; Pre-emergence action against VIOTR in % (Viola tricolor (VIOTR) [18]; dosage 80 g/ha): 90% |
